Experimental data taken from patent publication EP0755931A1, “Dihydropyridine and pyridine derivatives and process for their preparation” (priority 1995, dated 1997).
pIC50: −log10 of the molar value.

Biological target: T1, human placental aromatase (Homo sapiens, UniProt P11511)
T1 construct: utilizes the human placental microsomal fraction as enzyme source; from tissue; host or cells: human placenta, microsomal fraction
T1 sequence (P11511 1-503): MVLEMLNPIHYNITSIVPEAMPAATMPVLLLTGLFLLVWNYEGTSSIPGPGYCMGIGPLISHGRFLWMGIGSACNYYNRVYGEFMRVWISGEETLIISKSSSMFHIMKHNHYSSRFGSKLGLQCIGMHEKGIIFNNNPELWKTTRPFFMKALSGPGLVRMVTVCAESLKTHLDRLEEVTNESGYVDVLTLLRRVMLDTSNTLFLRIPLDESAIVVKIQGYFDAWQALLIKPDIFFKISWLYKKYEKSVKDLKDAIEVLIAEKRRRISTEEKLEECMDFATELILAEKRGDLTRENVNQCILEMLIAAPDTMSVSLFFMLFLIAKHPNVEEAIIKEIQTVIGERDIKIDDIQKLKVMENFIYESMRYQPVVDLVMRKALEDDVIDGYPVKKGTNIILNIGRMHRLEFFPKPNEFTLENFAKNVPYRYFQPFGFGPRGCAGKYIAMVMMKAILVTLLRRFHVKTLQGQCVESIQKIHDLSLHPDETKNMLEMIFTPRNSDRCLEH
Experiment: Inhibition of human placental aromatase (in vitro test of Thompson and Siiteri, 3H2O release from [1β-3H]androstenedione)
Format: biochemical
Settings: human placental microsomal fraction as enzyme source; compounds incubated for 15 min at 37°C with 50 nM [1β-3H]androstenedione in the presence of NADPH
Description: Estrogens are also involved in the pathogenesis of benign prostatic hyperplasia. Endogenous estrogens are ultimately formed from either androstenedione or testosterone as immediate precursors. The reaction of central importance is the aromatization of the steroidic ring A, which is performed by the enzyme aromatase. […] In this test the aromatization rate of androstenedione into estrone was evaluated by incubating (1β-^3H) androstenedione (50 nM) in the presence of NADPH with the enzyme preparation and by measuring the amount of^3H2O formed during 15 min incubation at 37°C.

Q: How did the pIC50 turn out when `CCOC(=O)C1=C(C)NC(C)=C(C#N)C1c1cccc(-n2ccnc2)c1` (racemic) [FCE 29013, 4-(3-1H-imidazol-1-yl-phenyl)-2,6-dimethyl-1,4-dihydropyridine-3-carbonitrile-5-carboxylic acid ethyl ester] was run?
A: 8.82

Q: How did the pIC50 turn out when `Cc1nc(C)c(C#N)c(-c2cccc(-n3ccnc3)c2)c1C#N` [FCE 28717, 4-(3-1H-imidazol-1-yl-phenyl)-2,6-dimethylpyridine-3,5-dicarbonitrile] was run?
A: 7.92

Q: With `CC1=C(C#N)C(c2cccc(-n3ccnc3)c2)C(C#N)=C(C)N1` [FCE 28718, 4-(3-1H-imidazol-1-yl-phenyl)-2,6-dimethyl-1,4-dihydropyridine-3,5-dicarbonitrile] as the compound, how does the pIC50 read?
A: 8.77

Q: `CC1=C(C#N)C(c2cccc(-n3cncn3)c2)C(C#N)=C(C)N1` [FCE 29138, 4-[3-(1,2,4)triazol-1-yl-phenyl]-2,6-dimethyl-1,4-dihydropyridine-3,5-dicarbonitrile] was tested. Which pIC50 did it give?
A: 7.60
